US5120758A, “Certain benzodioxole, benzodioxane and benzodioxepin derivatives useful as 5-lipoxygenase inhibitors” (Ciba-Geigy Corporation, priority 1991, dated 1992)
Where two headings read alike, the source gives them in different places.

Columns and labels:
5-lipoxygenase [1] = biological target: T1, 5-lipoxygenase (Cavia porcellus, UniProt A0A286X958); assay: Inhibition of 5-HETE and LTB4 synthesis in A-23187-stimulated guinea pig polymorphonuclear leukocytes; assay type: cell-based
T1 construct: in A-23187-stimulated guinea pig polymorphonuclear leukocytes; endogenous in cells; host or cells: guinea pig polymorphonuclear leukocytes
T1 sequence (A0A286X958 1-674): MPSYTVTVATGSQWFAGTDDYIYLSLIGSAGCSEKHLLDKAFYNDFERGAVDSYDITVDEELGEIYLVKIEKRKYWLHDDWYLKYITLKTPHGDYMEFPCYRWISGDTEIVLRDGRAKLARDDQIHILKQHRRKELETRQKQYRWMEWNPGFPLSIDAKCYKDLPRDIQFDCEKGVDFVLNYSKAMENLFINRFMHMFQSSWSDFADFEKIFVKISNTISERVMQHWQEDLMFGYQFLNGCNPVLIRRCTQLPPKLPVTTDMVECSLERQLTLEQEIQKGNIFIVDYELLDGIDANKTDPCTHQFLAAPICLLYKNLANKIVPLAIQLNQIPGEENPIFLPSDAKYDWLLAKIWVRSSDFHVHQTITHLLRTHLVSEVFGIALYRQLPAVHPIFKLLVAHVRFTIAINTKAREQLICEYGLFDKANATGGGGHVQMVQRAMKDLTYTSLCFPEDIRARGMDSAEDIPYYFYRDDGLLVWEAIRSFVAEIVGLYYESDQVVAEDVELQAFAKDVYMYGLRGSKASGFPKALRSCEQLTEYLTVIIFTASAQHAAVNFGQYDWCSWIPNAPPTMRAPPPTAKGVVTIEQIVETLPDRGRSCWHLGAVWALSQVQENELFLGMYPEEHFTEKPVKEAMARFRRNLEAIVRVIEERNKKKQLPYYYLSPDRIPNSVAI
Method: 5-Lipoxygenase inhibition is determined e.g. by measuring the percent inhibition of the synthesis of 5-HETE [(5S)-5-hydroxy-6,8,11,14-eicosa-tetraenoic acid] and leukotriene B4 (LTB4, 5,12-dihydroxy-6,8,10,14-eicosatetraenoic acid) in A-23187-stimulated guinea pig polymorphonuclear leukocytes, essentially according to radiometric thin-layer chromatographic assays described by Walker and Dawson (J. Pharm. Pharmacol. 31: 778, 1979) and Jakschik and Lee (Nature 287: 51, 1980) to measure the formation of 5-HETE and LTB4 -like products from ^14 C-arachidonic acid. IC50 values are determined graphically as the concentration of test compound at which the synthesis of 5-HETE and LTB4 -like products is reduced to 50% of their respective control values.

5-lipoxygenase [2] = assay: Ex vivo inhibition of A-23187-stimulated LTB4 formation in whole blood after oral administration; details: dose of about 1.0 mg/kg p.o. to the dog
Method: Furthermore, the inhibition of 5-lipoxygenase is determined after oral or i.v. administration to rats or dogs by measuring ex vivo in whole blood the decrease of A-23187-stimulated LTB4 formation as compared to non-treated control animals.

NC(=O)N(O)CC1COc2ccc(Oc3ccc(F)cc3)cc2O1 (stereo not drawn) [1(c), 2-(N-aminocarbonyl-N-hydroxy)aminomethyl-7-(4-fluorophenoxy)-1,4-benzodioxane]
IC50 (5-lipoxygenase [1]; read-out: IC50, inhibition of formation of 5-HETE): ~0.1 µM
IC50 (5-lipoxygenase [1]; read-out: IC50, inhibition of formation of leukotriene B4 (LTB4)): ~0.12 µM
inhibition of LTB4 formation as determined ex vivo (5-lipoxygenase [2]): significant inhibition
